Counter-ions that a name gives are not always drawn.
Key:
Assay type in all cases: biochemical
SIK1 = SIK1 (Homo sapiens (Human), UniProt P57059); assay: SIK1 enzymatic activity assay, RapidFire mass spectrometry (CHK-peptide phosphorylation); conditions: 5 nM SIK1, CHK-peptide, ATP, 30 min pre-incubation, 45 min reaction, RapidFire MS; read-out: SIK1 RF IC50
Experimental: (§1) In the presence of SIK2 (resp. SIK1 or SIK3) and ATP the CHK-peptide ([…] with C-terminal arginine amide modification) were phosphorylated at one of the four feasible serine's. Only one phosphorylation is observed under the assay conditions. 60 nl of each compound dilution series (12 point; dilution factor 3, generally 30 μM to 170 pM) in DMSO were transferred by acoustic dispensing to the assay plate and 30 min pre-incubated (ambient temperature) after the addition of 5 μl SIK1 (5 nM) resp. 5 μl SIK2 (0.5 nM) or 7 μl SIK3 (1.5 nM) in assay-buffer (12.5 mM HEPES (pH 7.0), 10 mM magnesium acetate, 0.005% BSA). 10 μM CHK-peptide solution and 5 μl 100 μM ATP for SIK1 & SIK2 resp. 3 μl for SIK3 in assay-buffer were added and incubated ambient for 45 min. 40 μl 0.125% formic acid in water were added to quench the reaction. RapidFire (RF) Mass Spectrometry was utilized for data generation as described below. The multiple charged species (3-5 charges) for the phosphorylated and non-phosphorylated form measured by MRM (Multiple Reaction Monitoring; API5000 or 6500+) or EIC (Extracted Ion Current; QToF) were summed up and the ratio calculated (sum phosphorylated species/sum all species) for data evaluation. Normalization was performed by Genedata software based on the non-inhibition control DMSO and the commercially available SIK inhibitor @ 1 μM YKL-05-099 (CAS number 1936529-65-5). The results of the assay are expressed in half-maximal inhibitory concentrations (IC50s) and are summarized below in Table 1.
(§2) Samples were aspirated by vacuum for max. 600 ms and loaded to C4-cartridge (Agilent; #G9203A) for 3000 ms@1.5 ml/min with 0.1% formic acid in water. Afterwards samples were transferred to the API5000 (API6500+) or QToF mass spectrometer for 4000 ms@1.25 ml/min with 90% acetonitrile; 10% water; 0.007% TFA; 0.093 formic acid. The cartridge was reconditioned for additional 500 ms with 0.1% formic acid in water
(§3) All MS analyses using the following MS-setup in MRM mode: Electrospray positive; Ion Spray Voltage: 4000V; Temperature: 550° C.; Collision Gas: 5; Curtain Gas: 15; Gas1: 40; Gas 2: 42; EP: 10
(§4) All MS analyses using the following MS-setup in Mode MS: Dual AJS Electrospray positive; VCap: 3000V; Drying & Sheath gas: 340° C.@81/min; Nebulizer: 60 psig; Nozzle Voltage: 2000V; Fragmentor: 130V; Skimmer: 35V; Oct1 RF Vpp: 700V; Ref masses on@5spectra/s

SIK2 = SIK2 (Homo sapiens (Human), UniProt Q9H0K1); assay: SIK2 enzymatic activity assay, RapidFire mass spectrometry (CHK-peptide phosphorylation); conditions: 0.5 nM SIK2, CHK-peptide, ATP, 30 min pre-incubation, 45 min reaction, RapidFire MS; read-out: SIK2 RF IC50
Experimental: as §1, §2, §3, §4

SIK3 = SIK3 (Homo sapiens (Human), UniProt Q9Y2K2); assay: SIK3 enzymatic activity assay, RapidFire mass spectrometry (CHK-peptide phosphorylation); conditions: 1.5 nM SIK3, CHK-peptide, ATP, 30 min pre-incubation, 45 min reaction, RapidFire MS; read-out: SIK3 RF IC50
Experimental: as §1, §2, §3, §4

Chain of SIK3 (Q9Y2K2 whole entry): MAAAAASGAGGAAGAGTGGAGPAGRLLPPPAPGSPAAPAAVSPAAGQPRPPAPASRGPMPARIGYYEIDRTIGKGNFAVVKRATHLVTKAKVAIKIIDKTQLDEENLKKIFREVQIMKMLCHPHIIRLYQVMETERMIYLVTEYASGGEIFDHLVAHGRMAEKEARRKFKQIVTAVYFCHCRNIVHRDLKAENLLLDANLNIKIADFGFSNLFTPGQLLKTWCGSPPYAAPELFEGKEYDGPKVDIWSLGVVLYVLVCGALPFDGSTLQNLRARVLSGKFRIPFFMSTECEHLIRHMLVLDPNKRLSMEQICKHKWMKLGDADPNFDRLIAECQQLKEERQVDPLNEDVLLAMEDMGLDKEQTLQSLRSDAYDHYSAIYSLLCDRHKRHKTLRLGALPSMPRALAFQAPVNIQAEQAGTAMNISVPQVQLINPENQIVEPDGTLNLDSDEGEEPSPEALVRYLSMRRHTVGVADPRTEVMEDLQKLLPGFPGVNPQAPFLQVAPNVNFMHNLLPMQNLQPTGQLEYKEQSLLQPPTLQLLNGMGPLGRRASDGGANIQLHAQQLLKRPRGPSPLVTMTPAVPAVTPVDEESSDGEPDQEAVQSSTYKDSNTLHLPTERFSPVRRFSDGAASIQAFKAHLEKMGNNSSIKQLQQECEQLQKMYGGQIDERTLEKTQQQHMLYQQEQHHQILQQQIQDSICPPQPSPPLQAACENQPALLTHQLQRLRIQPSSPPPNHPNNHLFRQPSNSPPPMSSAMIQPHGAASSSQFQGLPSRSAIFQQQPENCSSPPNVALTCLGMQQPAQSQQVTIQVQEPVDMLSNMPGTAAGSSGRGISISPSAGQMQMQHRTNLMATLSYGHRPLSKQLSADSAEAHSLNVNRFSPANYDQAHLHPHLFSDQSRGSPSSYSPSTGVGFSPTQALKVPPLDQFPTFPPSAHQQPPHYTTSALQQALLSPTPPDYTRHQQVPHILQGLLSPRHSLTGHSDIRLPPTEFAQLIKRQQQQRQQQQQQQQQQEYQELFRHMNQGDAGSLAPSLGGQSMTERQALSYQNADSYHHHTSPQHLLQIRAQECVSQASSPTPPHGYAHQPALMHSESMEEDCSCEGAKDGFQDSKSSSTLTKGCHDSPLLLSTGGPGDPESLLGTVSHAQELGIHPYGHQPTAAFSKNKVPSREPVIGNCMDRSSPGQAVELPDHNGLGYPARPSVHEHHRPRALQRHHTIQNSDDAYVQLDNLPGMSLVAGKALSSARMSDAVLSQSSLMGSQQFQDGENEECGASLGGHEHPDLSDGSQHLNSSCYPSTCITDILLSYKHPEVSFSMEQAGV
Chain of SIK2 (Q9H0K1 whole entry): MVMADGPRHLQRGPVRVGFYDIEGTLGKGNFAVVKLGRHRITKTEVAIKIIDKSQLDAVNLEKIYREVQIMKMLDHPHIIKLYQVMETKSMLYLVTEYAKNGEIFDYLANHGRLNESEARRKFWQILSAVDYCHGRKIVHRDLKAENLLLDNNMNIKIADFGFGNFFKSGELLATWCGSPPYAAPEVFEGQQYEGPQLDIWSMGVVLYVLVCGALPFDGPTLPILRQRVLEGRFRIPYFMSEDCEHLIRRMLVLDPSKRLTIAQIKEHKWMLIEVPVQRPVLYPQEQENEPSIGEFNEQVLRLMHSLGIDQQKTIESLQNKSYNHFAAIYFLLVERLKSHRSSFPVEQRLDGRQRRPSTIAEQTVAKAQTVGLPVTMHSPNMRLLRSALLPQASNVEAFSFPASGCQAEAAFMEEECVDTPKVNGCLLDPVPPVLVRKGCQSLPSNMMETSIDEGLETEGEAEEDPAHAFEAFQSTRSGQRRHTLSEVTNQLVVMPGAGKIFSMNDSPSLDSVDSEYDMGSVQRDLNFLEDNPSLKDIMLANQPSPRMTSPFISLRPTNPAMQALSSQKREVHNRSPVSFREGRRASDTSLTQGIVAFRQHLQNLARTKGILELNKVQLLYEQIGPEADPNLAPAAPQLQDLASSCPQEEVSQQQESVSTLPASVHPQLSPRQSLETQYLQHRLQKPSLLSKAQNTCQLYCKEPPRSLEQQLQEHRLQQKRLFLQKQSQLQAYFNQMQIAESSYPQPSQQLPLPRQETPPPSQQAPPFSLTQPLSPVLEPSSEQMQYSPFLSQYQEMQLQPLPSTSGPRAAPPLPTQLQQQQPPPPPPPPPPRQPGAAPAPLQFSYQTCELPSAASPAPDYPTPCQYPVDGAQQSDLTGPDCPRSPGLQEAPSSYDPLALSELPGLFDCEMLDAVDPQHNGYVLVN
Chain of SIK1 (P57059 whole entry): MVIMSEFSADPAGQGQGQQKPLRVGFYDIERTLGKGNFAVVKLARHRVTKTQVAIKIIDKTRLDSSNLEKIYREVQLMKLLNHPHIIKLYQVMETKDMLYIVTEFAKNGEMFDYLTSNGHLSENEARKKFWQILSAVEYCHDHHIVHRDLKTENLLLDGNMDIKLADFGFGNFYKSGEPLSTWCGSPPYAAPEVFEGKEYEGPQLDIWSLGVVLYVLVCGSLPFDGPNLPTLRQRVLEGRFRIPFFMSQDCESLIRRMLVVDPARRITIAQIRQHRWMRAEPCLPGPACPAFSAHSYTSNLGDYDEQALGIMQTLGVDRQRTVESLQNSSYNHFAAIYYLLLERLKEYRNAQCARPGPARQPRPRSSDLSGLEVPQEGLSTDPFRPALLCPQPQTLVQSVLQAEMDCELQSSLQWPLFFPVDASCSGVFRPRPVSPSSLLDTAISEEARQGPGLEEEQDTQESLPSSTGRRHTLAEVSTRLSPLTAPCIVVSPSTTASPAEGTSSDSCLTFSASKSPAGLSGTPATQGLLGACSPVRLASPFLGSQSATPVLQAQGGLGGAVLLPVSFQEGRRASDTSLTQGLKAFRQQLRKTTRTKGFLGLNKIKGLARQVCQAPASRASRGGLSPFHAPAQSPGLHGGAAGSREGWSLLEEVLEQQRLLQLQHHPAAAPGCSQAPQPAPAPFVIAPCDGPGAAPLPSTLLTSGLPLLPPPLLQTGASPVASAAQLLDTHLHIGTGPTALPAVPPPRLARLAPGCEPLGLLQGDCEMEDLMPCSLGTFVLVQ

IC50 (SIK1)	IC50 (SIK2)	IC50 (SIK3)	SMILES
1.7 nM	2.2 nM	69.2 nM	COc1cc2ncn(-c3ccc(C(N)=O)c(NC(CN)c4ccsc4)n3)c2cc1OC (stereo not drawn) [Example 12, 2-[[2-amino-1-(3-thienyl)ethyl]amino]-6-(5,6-dimethoxybenzimidazol-1-yl)pyridine-3-carboxamide hydrochloride]
76 nM	95.1 nM	562 nM	Cc1ccc(Nc2ccc3c(c2)ncn3-c2ccc(C=O)c(N3C[C@H](C#N)C[C@@H]3C)n2)nn1 [Example 33, (3R,5S)-1-[3-formyl-6-[5-[(6-methylpyridazin-3-yl)amino]benzimidazol-1-yl]-2-pyridyl]-5-methyl-pyrrolidine-3-carbonitrile]
2.8 nM	2.5 nM	39.9 nM	COc1cc2ncn(-c3ccc(C(N)=O)c(NCCc4ccccc4)n3)c2cc1OC [Example 6, 6-(5,6-dimethoxybenzimidazol-1-yl)-2-(2-phenylethylamino)pyridine-3-carboxamide]
101 nM	115 nM	150 nM	CC(=O)c1ccc(-n2cnc3cc4c(cc32)C(C)(C)C(=O)N4c2ccc(C)nn2)nc1-n1nc(C#N)cc1C [Example 35, 1-[3-acetyl-6-[6-keto-7,7-dimethyl-5-(6-methylpyridazin-3-yl)pyrrolo[2,3-f]benzimidazol-1-yl]-2-pyridyl]-5-methyl-pyrazole-3-carbonitrile]
29.7 nM	18.2 nM	188 nM	COc1cc2ncn(-c3ccc(C(N)=O)c(NCc4cccs4)n3)c2cc1OC [Example 7, 6-(5,6-dimethoxybenzimidazol-1-yl)-2-(2-thienylmethylamino)pyridine-3-carboxamide]
669 nM	6.6 nM	8.1 nM	CC(=O)c1ccc(-n2cnc3cc(Nc4ccc(C)nn4)ccc32)nc1-n1nc(C#N)cc1C [Example 27, 1-[3-Acetyl-6-[5-[(6-methylpyridazin-3-yl)amino]benzimidazol-1-yl]-2-pyridyl]-5-methyl-pyrazole-3-carbonitrile]
15.5 nM	7.8 nM	156 nM	COc1cc2ncn(-c3ccc(C(N)=O)c(NCc4ccccc4)n3)c2cc1OC [Example 3, 2-(benzylamino)-6-(5,6-dimethoxybenzimidazol-1-yl)pyridine-3-carboxamide]
27.4 nM	16.2 nM	260 nM	COc1cc2ncn(-c3ccc(C(N)=O)c(NCc4ccc(Cl)cc4)n3)c2cc1OC [Example 8, 2-[(4-chlorophenyl)methylamino]-6-(5,6-dimethoxybenzimidazol-1-yl)pyridine-3-carboxamide]
14 nM	3.8 nM	97.2 nM	COc1cc2ncn(-c3ccc(C(N)=O)c(Nc4ccccc4)n3)c2cc1OC [Example 2, 6-(5,6-Dimethoxy-benzoimidazol-1-yl)-2-phenylamino-nicotinamide]
15.1 nM	14.2 nM	57.2 nM	COc1cc2ncn(-c3ccc(C(N)=O)c(Oc4ccccc4Cl)n3)c2cc1OC [Example 1, 2-(2-chlorophenoxy)-6-(5,6-dimethoxybenzimidazol-1-yl)pyridine-3-carboxamide]
22500 nM	995 nM	> 30000 nM	COC(=O)c1ccc(-n2cnc3cc(OC)c(OC)cc32)nc1-c1cccc(Cl)c1 [Example 13, Methyl 2-(3-chlorophenyl)-6-(5,6-dimethoxy-1H-benzo[d]imidazol-1-yl)nicotinate]
17800 nM	154 nM	49.4 nM	COC(=O)c1ccc(-n2cnc3cc(Nc4ccc(C)nn4)ccc32)nc1-n1nc(OC)cc1C [Example 26, Methyl 2-(3-methoxy-5-methyl-pyrazol-1-yl)-6-[5-[(6-methylpyridazin-3-yl)amino]benzimidazol-1-yl]pyridine-3-carboxylate]
308 nM	111 nM	184 nM	CC(=O)c1ccc(-n2cnc3ccc(Nc4ccc(C)nn4)cc32)nc1-n1nc(C#N)cc1C [Example 28, 1-[3-Acetyl-6-[6-[(6-methylpyridazin-3-yl)amino]benzimidazol-1-yl]-2-pyridyl]-5-methyl-pyrazole-3-carbonitrile]
43 nM	19.9 nM	988 nM	Cc1ccc(Nc2ccc3ncn(-c4ccc(C=O)c(N5C[C@H](C#N)C[C@@H]5C)n4)c3c2)nn1 [Example 32, (3R,5S)-1-[3-formyl-6-[6-[(6-methylpyridazin-3-yl)amino]benzimidazol-1-yl]-2-pyridyl]-5-methyl-pyrrolidine-3-carbonitrile]
1770 nM	5740 nM	> 10000 nM	COc1cc2ncn(-c3ccc(C(=O)NC4CC4)c(-c4cccc(C#N)c4)n3)c2cc1OC [Example 19, 2-(3-Cyanophenyl)-N-cyclopropyl-6-(5,6-dimethoxybenzimidazol-1-yl)pyridine-3-carboxamide]
> 30000 nM	536 nM	8800 nM	Cc1ccc(Nc2ccc3ncn(-c4ccc(C=O)c(-n5nc(C#N)cc5C)n4)c3c2)nn1 [Example 40, 1-[3-formyl-6-[6-[(6-methylpyridazin-3-yl)amino]benzimidazol-1-yl]-2-pyridyl]-5-methyl-pyrazole-3-carbonitrile]

— patent US20240366581A1 (Hoffmann-La Roche Inc., priority 2022, published 2024)
